Measurements from patent US20250230129A1, “POLYAMIDE COMPOUNDS, METHOD FOR PREPARING SAME, AND MEDICAL USE THEREOF” (priority 2022, published 2025).
Where two headings read alike, the source gives them in different places. Square brackets hold non-standard residues; d marks the D form. Peptide text beside a SMILES is read from it. * marks the point of attachment. Gly(N-(2R-Ph-propyl)) = C[C@@H](CNCC(=O)O)c1ccccc1; Piperidin1yl(4-NH2,4-COOH) = NC1(C(=O)O)CCN(*)CC1; dPhLac = O=C(O)[C@H](O)Cc1ccccc1; X4 = COC(=O)NC1CCN(*)CC1

How the values were obtained:
ICR mice [1] = test: Sedation safety window; settings: sedation side effect ED50 (autonomic activity test)/efficacy ED50 (acetic acid writhing test)
[2] = Autonomous activity test in mice; settings: male, ICR, mouse, in vivo, iv
δ receptor = δ receptor (Homo sapiens (Human), UniProt P41143); test: Competitive delta receptor binding assay (3H-DADLE)
ICR mice [3] = test: Acetic acid writhing test in mice; assay type: in vivo; settings: Mus musculus, read-out: Acetic acid writhing in mice ED50
[4] = target: κ-opioid receptor (Kappa) (Homo sapiens (Human), UniProt P41145); test: In vitro functional assay, HTRF cAMP-Gi in CHO-K1-OPRK1 cells; assay type: cell-based
κ receptor = κ receptor (Homo sapiens (Human), UniProt P41145); test: Competitive Kappa receptor binding assay (3H-U69593)
[5] = PK and blood-brain barrier permeability in mice; assay type: in vivo; settings: male ICR mice, intravenous 1 mg/kg; for AUC(0-inf) / Vd / clearance / half-life / Cmax: plasma; for half-life: read-out: t½ (converted)
Protocol: The compounds of the present disclosure were investigated for pharmacokinetic characteristics and blood-brain barrier permeability in mice.
Healthy male ICR mice were randomly grouped, 6 animals per group. For each test compound, 3 groups of animals were used. The first group of animals was used for collecting blood and brain 5 min after the administration, and the second group of animals and the third group of animals were used for cross blood collection at subsequent time points; each test compound was intravenously administered (1 mg/kg) to corresponding groups of mice, and blood sampling via submaxillary veins of the mice was carried out at different time points. Drug contents in plasma and brain tissues at different time points were measured by an LC-MS/MS method, the brain-to-blood ratio B/P was calculated by using EXCEL software, and pharmacokinetic parameters were calculated by using DAS3.0 software.

μ receptor = μ receptor (Homo sapiens (Human), UniProt P35372); test: μ receptor affinity assay (3H-DAMGO); assay type: binding
hERG = hERG (Homo sapiens (Human), UniProt Q12809); test: in vitro; settings: pH 7.4
ICR mice [6] = settings: mouse, in vivo
in vivo = settings: male, ICR, mouse, iv
[7] = single intravenous injection, male ICR mice
[8] = blood and brain 5 min after administration

SMILES	Safety window (ICR mice [1])	ED50 at 30 min [2] [mg/kg]	Ki (δ receptor) [nM]	ED50 (ICR mice [3]; [7]) [mg/kg]	EC50 [4] [nM]	Ki (κ receptor) [nM]	B/P (brain-to-blood ratio) [5, 8]	AUC(0-inf) ([5]; mouse) [ng·h/mL]	Vd ([5]; mouse) [L/kg]	clearance ([5]; mouse) [mL/min/kg]	half-life ([5]; mouse) [min]	Cmax ([5]; mouse) [ng/mL]	Ki (μ receptor) [nM]	inhibition at 10 µM (hERG) [%]	Safety window (ICR mice [6])	ED50 (ICR mice [3]; iv) [mg/kg]	Kp at 5 min ([5]; mouse, brain/plasma, blood and brain 5 min after administration, read-out: B/P (brain-to-blood ratio))	ED50 (in vivo) [mg/kg]
CC(C)C[C@@H](NC(=O)[C@@H](Cc1ccccc1)NC(=O)N(CCN)Cc1ccccc1)C(=O)N[C@H](CCCCN)C(=O)N1CCS(=O)(=O)CC1 [Compound 21]	2.82	1.42	> 1000	0.5	0.68	0.33	0.010	2670	0.63	6.33	69	3460	> 1000					
CC(C)C[C@@H](NC(=O)[C@@H](Cc1ccccc1)NC(=O)[C@H](N)Cc1ccccc1)C(=O)N[C@H](CCCCN)C(=O)N1CCC2(CC1)OC(=O)Nc1ncccc12 [Compound 4A, (2R)—N-[(2R)-6-amino-1-oxo-1-{2′-oxo-1′H-spiro[piperidine-4,4′-pyrido[2,3-d][1,3]oxazin]-1-yl}hex-2-yl]-2-[(2R)-2-[(2R)-2-amino-3-phenylpropionylamino]-3-phenylpropionylamino]-4-methylpentanamide]	3.05	1.25	> 1000	0.41	0.2	0.3							> 1000	0.9				
COC(=O)NC1CCN(C(=O)[C@@H](CCCCN)NC(=O)[C@@H](CC(C)C)NC(=O)[C@@H](Cc2ccccc2)NC(=O)[C@H](N)Cc2ccccc2)CC1 [Compound 1A]		1.08	> 1000	0.38	0.05	0.4							> 1000	-0.94	2.84			
COC(=O)C1(N)CCN(C(=O)[C@@H](CCCCN)NC(=O)[C@@H](CC(C)C)NC(=O)[C@@H](Cc2ccccc2)NC(=O)N(CCN)Cc2ccccc2)CC1 [Compound 13-2, methyl 4-amino-1-[(2R)-6-amino-2-[(2R)-2-[(2R)-2-{[2-aminoethyl(benzyl)carbamoyl]amino}-3-phenylpropionylamino]-4-methylpentanoylamino]hexanoyl]piperidine-4-carboxylate]	16.18	2.75	> 1000	0.17	0.13	0.13	BQL**	1690	0.63	10	43.2	2930	> 1000					
CC(C)C[C@@H](NC(=O)[C@@H](Cc1ccccc1)NC(=O)N(CCN)Cc1ccccc1)C(=O)N[C@H](CCCCN)C(=O)N1CCC(N)(C(=O)O)CC1 [Compound 13]	12.30	2.83	> 1000	0.23	0.52	0.13	0.015	1350	0.38	12.3	21	2540	> 1000	0.8				
CC(=O)N=S1(=O)CCN(C(=O)[C@@H](CCCCN)NC(=O)[C@@H](CC(C)C)NC(=O)[C@@H](Cc2ccccc2)NC(=O)[C@H](N)Cc2ccccc2)CC1 [Compound 3B]			> 1000		1	1.05							> 1000	1.13	7.74	0.42		
COC(=O)NC1CCN(C(=O)[C@@H](CCCCN)NC(=O)[C@@H](CC(C)C)NC(=O)[C@@H](Cc2ccccc2)NC(=O)[C@H](O)Cc2ccccc2)CC1 [Compound 11] (H-[dPhLac][dF][dL][dK]-X4)	5.27	9.6	> 1000	1.82	5.1	0.94							> 1000					
COC(=O)NC1CCN(C(=O)[C@@H](CCCCN)NC(=O)[C@@H](CC(C)C)NC(=O)[C@@H](Cc2ccccc2)NC(=O)N(C)C(CN)c2ccccc2)CC1 (stereo partly drawn) [Compound 12, methyl N-{1-[(2R)-6-amino-2-[(2R)-2-[(2R)-2-{[(2-amino-1-phenylethyl)(methyl)carbamoyl]amino}-3-phenylpropionylamino]-4-methylpentanoylamino]hexanoyl]piperidin-4-yl}carbamate]			> 1000		0.17	0.53		3680	0.54	4.67	85.2	2260	> 1000	2.13			0.008	
CC(C)C[C@@H](NC(=O)[C@@H](Cc1ccccc1)NC(=O)[C@H](N)Cc1ccccc1)C(=O)N[C@H](CCCCN)C(=O)N1CCS(=N)(=O)CC1 [Compound 1B, (R)—N—((R)-6-amino-1-(1-imino-1-oxo-1λ6-thiomorpholine)-1-oxohex-2-yl)-2-((R)-2-((R)-2-amino-3-phenylpropionylamino)-3-phenylpropionylamino)-4-methylpentanamide]			> 1000		0.52	0.42							> 1000	1.2	2.50	0.2		0.5
CC(C)C[C@@H](NC(=O)[C@@H](Cc1ccccc1)NC(=O)C[C@@H](N)c1ccccc1)C(=O)N[C@H](CCCCN)C(=O)N1CCC(N)(C(=O)O)CC1 [Compound 4-0, 4-amino-1-[(2R)-6-amino-2-[(2R)-2-[(2R)-2-((3R)-3-amino-3-phenylpropionylamino)-3-phenylpropionylamino]-4-methylpentanoylamino]hexanoyl]piperidine-4-carboxylic acid]	6.44	7.34	> 1000	1.14	3.62	2.8							> 1000					
CC(C)C[C@@H](NC(=O)[C@@H](Cc1ccccc1)NC(=O)N(CCN)Cc1ccccc1)C(=O)N[C@H](CCCCN)C(=O)N1CCC2(CC1)NC(=O)NC2=O [Compound 29]	3.28	1.35	> 1000	0.41	0.058	0.63	0.010	3340	0.32	5.17	44.4	4710	> 1000					
CC(C)C[C@@H](NC(=O)[C@@H](Cc1ccccc1)NC(=O)CNC[C@H](C)c1ccccc1)C(=O)N[C@H](CCCCN)C(=O)N1CCC(N)(C(=O)O)CC1 [Comparative Example 1B, reference compound] (H-[Gly(N-(2R-Ph-propyl))][dF][dL][dK]-{Piperidin1yl(4-NH2,4-COOH)})	2.36	0.59		0.25														
CC(C)C[C@@H](NC(=O)[C@@H](Cc1ccccc1)NC(=O)N(Cc1ccccc1)C1CCNC1)C(=O)N[C@H](CCCCN)C(=O)N1CCC(N)(C(=O)O)CC1 (stereo partly shown) [Compound 27]	5.22	4.59	> 1000	0.88	0.87	0.88	0.010	1160	0.63	14.7	30	2320	> 1000					
CC(C)C[C@@H](NC(=O)[C@@H](Cc1ccccc1)NC(=O)N(C)C(CN)c1ccccc1)C(=O)N[C@H](CCCCN)C(=O)N1CCS(=N)(=O)CC1 (stereo partly shown) [Compound 10]			> 1000		1.1	0.86	0.007	4010	0.29	4.17	49.2	3220	> 1000					
CNC(=O)NC1CCN(C(=O)[C@@H](CCCCN)NC(=O)[C@@H](CC(C)C)NC(=O)[C@@H](Cc2ccccc2)NC(=O)N(CCN)Cc2ccccc2)CC1 [Compound 17]			> 1000		0.3	0.44							> 1000					
